Measurements reported in PubChem BioAssay AID1963838 (Molecular Pharmacology Branch, DTP, NCI, 2024).

Tested on: 855422-203-R-J1-PDC complex spheroid viability
Test: Anticancer human tumor 855422-203-R-J1-PDC patient-derived bladder carcinoma cell line growth inhibition [POLQ]
Conditions: for IC50: curve of first compound; for viability, T/C: stronger effect = lower value
Procedure, shortened: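 Patient-derived tumour cells were co-cultured with HUVEC and mesenchymal stem cells as multicellular spheroids at 37 °C. They were treated with POLQ inhibitors (novobiocin, ART-558, RP6685) alone or combined with other agents. Top concentrations were at or near clinical Cmax (otherwise 10 microM; SN-38 at 1 microM), decreasing in half-log steps.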

[1] = second compound 0.0316 µM, first compound 0.0316 µM
[2] = second compound 0.0316 µM, first compound 0.1 µM
[3] = second compound 0.0316 µM, first compound 0.316 µM
[4] = second compound 0.0316 µM, first compound 1 µM
[5] = second compound 0.1 µM, first compound 0.0316 µM
[6] = second compound 0.1 µM, first compound 0.1 µM
[7] = second compound 0.1 µM, first compound 0.316 µM
[8] = second compound 0.1 µM, first compound 1 µM
[9] = second compound 0.316 µM, first compound 0.0316 µM
[10] = second compound 0.316 µM, first compound 0.1 µM
[11] = second compound 0.316 µM, first compound 0.316 µM
[12] = second compound 0.316 µM, first compound 1 µM
[13] = second compound 1 µM, first compound 0.0316 µM
[14] = second compound 1 µM, first compound 0.1 µM
[15] = second compound 1 µM, first compound 0.316 µM
[16] = second compound 1 µM, first compound 1 µM
[17] = second compound 3.16 µM, first compound 0.0316 µM
[18] = second compound 3.16 µM, first compound 0.1 µM
[19] = second compound 3.16 µM, first compound 0.316 µM
[20] = second compound 3.16 µM, first compound 1 µM
[21] = second compound 10 µM, first compound 0.0316 µM
[22] = second compound 10 µM, first compound 0.1 µM
[23] = second compound 10 µM, first compound 0.316 µM
[24] = second compound 10 µM, first compound 1 µM
[25] = second compound 0.0316 µM, first compound 3.16 µM
[26] = second compound 0.0316 µM, first compound 10 µM
[27] = second compound 0.1 µM, first compound 3.16 µM
[28] = second compound 0.1 µM, first compound 10 µM
[29] = second compound 0.316 µM, first compound 3.16 µM
[30] = second compound 0.316 µM, first compound 10 µM
[31] = second compound 1 µM, first compound 3.16 µM
[32] = second compound 1 µM, first compound 10 µM
[33] = second compound 3.16 µM, first compound 3.16 µM
[34] = second compound 3.16 µM, first compound 10 µM
[35] = second compound 10 µM, first compound 3.16 µM
[36] = second compound 10 µM, first compound 10 µM
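Further: spheroids exposed to compounds for seven days before readout.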

With CCc1c2c(nc3ccc(O)cc13)-c1cc3c(c(=O)n1C2)COC(=O)[C@]3(O)CC + Nc1ccc(C#CCN(C(=O)Cc2ncc(C(F)(F)F)cc2C(F)(F)F)c2ccc(F)cc2)nn1 the IC50 (second compound 0.0316 µM) was 7.28 nM, the IC50 (second compound 0.1 µM) was 6.82 nM and the IC50 (second compound 0.316 µM) was 7.42 nM. For the same molecule, the IC50 (second compound 1 µM) was 7.43 nM, the IC50 (second compound 3.16 µM) was 5.79 nM and the IC50 (second compound 10 µM) was 6.31 nM. It also gave a viability, T/C (second compound 0.0316 µM, first compound 0.00316 µM) of 96.9%, a viability, T/C (second compound 0.0316 µM, first compound 0.01 µM) of 31.4% and a viability, T/C [1] of 12.5%. For the same molecule, the viability, T/C [2] was 5.91%, the viability, T/C [3] was 4.85% and the viability, T/C [4] was 2.42%. The viability, T/C (second compound 0.1 µM, first compound 0.00316 µM) was 100%, the viability, T/C (second compound 0.1 µM, first compound 0.01 µM) was 24.3% and the viability, T/C [5] was 10.2%. The viability, T/C [6] was 7.32%, the viability, T/C [7] was 4.65% and the viability, T/C [8] was 2.23%. It also gave a viability, T/C (second compound 0.316 µM, first compound 0.00316 µM) of 96.2%, a viability, T/C (second compound 0.316 µM, first compound 0.01 µM) of 33.6% and a viability, T/C [9] of 11.4%. For the same molecule, the viability, T/C [10] was 6.7%, the viability, T/C [11] was 4.41% and the viability, T/C [12] was 2.32%. It also gave a viability, T/C (second compound 1 µM, first compound 0.00316 µM) of 94.7%, a viability, T/C (second compound 1 µM, first compound 0.01 µM) of 34.5% and a viability, T/C [13] of 8.52%. The viability, T/C [14] was 7.09%, the viability, T/C [15] was 4.98% and the viability, T/C [16] was 3.55%. It also gave a viability, T/C (second compound 3.16 µM, first compound 0.00316 µM) of 71.9%, a viability, T/C (second compound 3.16 µM, first compound 0.01 µM) of 29.9% and a viability, T/C [17] of 12.9%. For the same molecule, the viability, T/C [18] was 7.49%, the viability, T/C [19] was 5.5% and the viability, T/C [20] was 2.82%. For the same molecule, the viability, T/C (second compound 10 µM, first compound 0.00316 µM) was 86.3%, the viability, T/C (second compound 10 µM, first compound 0.01 µM) was 24.2% and the viability, T/C [21] was 14.3%. For the same molecule, the viability, T/C [22] was 8.16%, the viability, T/C [23] was 5.98% and the viability, T/C [24] was 2.43%.

In the case of CNCc1ccc(-c2[nH]c3cc(F)cc4c3c2CCNC4=O)cc1 + Nc1ccc(C#CCN(C(=O)Cc2ncc(C(F)(F)F)cc2C(F)(F)F)c2ccc(F)cc2)nn1, the IC50 (second compound 0.0316 µM) is reported as > 10000 nM, the IC50 (second compound 0.1 µM) is reported as > 10000 nM and the IC50 (second compound 0.316 µM) is reported as > 10000 nM. The IC50 (second compound 1 µM) was > 10000 nM, the IC50 (second compound 3.16 µM) was > 10000 nM and the IC50 (second compound 10 µM) was > 10000 nM. It also gave a viability, T/C [1] of 94.5%, a viability, T/C [2] of 131% and a viability, T/C [3] of 102%. It also gave a viability, T/C [4] of 102%, a viability, T/C [25] of 106% and a viability, T/C [26] of 116%. For the same molecule, the viability, T/C [5] was 97.8%, the viability, T/C [6] was 154% and the viability, T/C [7] was 112%. It also gave a viability, T/C [8] of 86%, a viability, T/C [27] of 99.2% and a viability, T/C [28] of 115%. The viability, T/C [9] was 100%, the viability, T/C [10] was 121% and the viability, T/C [11] was 108%. For the same molecule, the viability, T/C [12] was 91.4%, the viability, T/C [29] was 100% and the viability, T/C [30] was 119%. For the same molecule, the viability, T/C [13] was 90.9%, the viability, T/C [14] was 115% and the viability, T/C [15] was 91.4%. For the same molecule, the viability, T/C [16] was 104%, the viability, T/C [31] was 118% and the viability, T/C [32] was 112%. For the same molecule, the viability, T/C [17] was 94.9%, the viability, T/C [18] was 119% and the viability, T/C [19] was 101%. For the same molecule, the viability, T/C [20] was 97.3%, the viability, T/C [33] was 101% and the viability, T/C [34] was 104%. It also gave a viability, T/C [21] of 98.3%, a viability, T/C [22] of 102% and a viability, T/C [23] of 107%. The viability, T/C [24] was 100%, the viability, T/C [35] was 110% and the viability, T/C [36] was 97.8%.

Work on Nc1ccn(C2OC(CO)C(O)C2(F)F)c(=O)n1 (stereo not drawn) + Nc1ccc(C#CCN(C(=O)Cc2ncc(C(F)(F)F)cc2C(F)(F)F)c2ccc(F)cc2)nn1 yielded an IC50 (second compound 0.0316 µM) of 61.9 nM, an IC50 (second compound 0.1 µM) of 62.5 nM and an IC50 (second compound 0.316 µM) of 82.3 nM. It also gave an IC50 (second compound 1 µM) of 91.2 nM, an IC50 (second compound 3.16 µM) of 207 nM and an IC50 (second compound 10 µM) of 447 nM. It also gave a viability, T/C [1] of 93.6%, a viability, T/C [2] of 18.9% and a viability, T/C [3] of 17.6%. It also gave a viability, T/C [4] of 13.8%, a viability, T/C [25] of 11% and a viability, T/C [26] of 6.83%. It also gave a viability, T/C [5] of 99.3%, a viability, T/C [6] of 15.9% and a viability, T/C [7] of 18.2%. For the same molecule, the viability, T/C [8] was 14.1%, the viability, T/C [27] was 12.3% and the viability, T/C [28] was 9.34%. For the same molecule, the viability, T/C [9] was 148%, the viability, T/C [10] was 29.9% and the viability, T/C [11] was 16%. For the same molecule, the viability, T/C [12] was 18.6%, the viability, T/C [29] was 11.3% and the viability, T/C [30] was 8.21%. It also gave a viability, T/C [13] of 136%, a viability, T/C [14] of 42.2% and a viability, T/C [15] of 16.8%. The viability, T/C [16] was 14.5%, the viability, T/C [31] was 11.3% and the viability, T/C [32] was 10.8%. For the same molecule, the viability, T/C [17] was 118%, the viability, T/C [18] was 103% and the viability, T/C [19] was 19.4%. The viability, T/C [20] was 16.3%, the viability, T/C [33] was 14.8% and the viability, T/C [34] was 11.8%. For the same molecule, the viability, T/C [21] was 105%, the viability, T/C [22] was 210% and the viability, T/C [23] was 63.6%. It also gave a viability, T/C [24] of 23%, a viability, T/C [35] of 18.2% and a viability, T/C [36] of 14.1%.

For O=C(c1cc(Cc2n[nH]c(=O)c3ccccc23)ccc1F)N1CCN(C(=O)C2CC2)CC1 + Nc1ccc(C#CCN(C(=O)Cc2ncc(C(F)(F)F)cc2C(F)(F)F)c2ccc(F)cc2)nn1, the IC50 (second compound 0.0316 µM) was > 10000 nM, the IC50 (second compound 0.1 µM) was > 10000 nM and the IC50 (second compound 0.316 µM) was > 10000 nM. The IC50 (second compound 1 µM) was > 10000 nM, the IC50 (second compound 3.16 µM) was > 10000 nM and the IC50 (second compound 10 µM) was > 10000 nM. It also gave a viability, T/C [1] of 97.5%, a viability, T/C [2] of 126% and a viability, T/C [3] of 104%. For the same molecule, the viability, T/C [4] was 98%, the viability, T/C [25] was 94% and the viability, T/C [26] was 150%. The viability, T/C [5] was 95%, the viability, T/C [6] was 132% and the viability, T/C [7] was 113%. The viability, T/C [8] was 90.8%, the viability, T/C [27] was 125% and the viability, T/C [28] was 119%. The viability, T/C [9] was 91.6%, the viability, T/C [10] was 128% and the viability, T/C [11] was 96.9%. It also gave a viability, T/C [12] of 98.8%, a viability, T/C [29] of 129% and a viability, T/C [30] of 162%. The viability, T/C [13] was 98.7%, the viability, T/C [14] was 113% and the viability, T/C [15] was 105%. For the same molecule, the viability, T/C [16] was 109%, the viability, T/C [31] was 121% and the viability, T/C [32] was 163%. The viability, T/C [17] was 97.6%, the viability, T/C [18] was 114% and the viability, T/C [19] was 100%. For the same molecule, the viability, T/C [20] was 107%, the viability, T/C [33] was 105% and the viability, T/C [34] was 134%. It also gave a viability, T/C [21] of 99.4%, a viability, T/C [22] of 102% and a viability, T/C [23] of 123%. The viability, T/C [24] was 99.6%, the viability, T/C [35] was 113% and the viability, T/C [36] was 109%.
